Measured values taken from PMC10251477, “Doubly Constrained C-terminal of Roc (COR) Domain-Derived Peptides Inhibit Leucine-Rich Repeat Kinase 2 (LRRK2) Dimerization” (ACS Chemical Neuroscience, 2023).
“And” between values parts separate entries of the source, which are not always exact repeats. Equal entries are not always repeated. Bridge positions count the residues as written; N and C are the ends. Square brackets hold non-standard residues; d marks the D form. Peptide text beside a SMILES is read from it. * marks the point of attachment. 5FAM = O=C1OC2(c3ccc(O)cc3Oc3cc(O)ccc32)c2ccc(C(=O)*)cc21; S5 = C=CCCC[C@](C)(N)C(=O)O; AEEEA = NCCOCCOCCOCC(=O)O

Assays:
[1] = test system: LRRK2 substrate Rab10 (phospho-T73) in A549 PPM1H knockout cells; assay: Rab10 phosphorylation immunoblotting (LRRK2 kinase activity); type: cell-based; settings: Western blot; for downregulation of Rab10 phosphorylation: 1 μM and 2.5 μM peptide (both concentrations), 6 h, pRab10 T73 over total Rab10, normalized to GAPDH and untreated control
Description: A549 PPM1H knockout cells were treated with 1 μM and 2.5 μM of doubly constrained peptide for 6 h. Cells treated with 1 μM MLi-2 were used as a positive control. Cell lysates were separated by SDS-PAGE and transferred to PVDF membranes by wet transfer. pRab10 T73 and total Rab10 signals were blotted on different membranes with GAPDH as a loading control on the same membrane to save the membrane from the stripping step. The membranes were blocked in nonfat milk and probed with Rab10 (phospho-T73) (Abcam; ab241060, Lot; GR327 4620-4), total Rab10 (Cell Signaling Technology; #4262S), and total GAPDH (14C10) (Cell Signaling Technology; #2118S) antibodies overnight at 4 °C, followed by incubation with HRP anti-rabbit secondary antibody, and developed using ECL. The blots were quantified using Image Studio Lite version 5.2 by selecting the bands to obtain the intensity for each band. The phospho-Rab10, total Rab10, and GAPDH signal for every sample were normalized to its untreated control for the same day. The phospho-Rab10 and total Rab10 signal was further normalized to the GAPDH signal (loading control) on the same blot. The graph was plotted with GAPDH normalized phospho-Rab10 signal over total Rab10 signal for every sample (*normalized to untreated sample). [drawing 1]

[2] = test system: GFP-LRRK2 in HEK293 cells; assay: LRRK2 microtubule localization assay in live cells; type: cell-based; settings: HEK293 cells overexpressing GFP-LRRK2 24 h, 37 °C, SiR-tubulin stain, live imaging
Description: HEK293 cells were transfected with GFP–LRRK2 for 24 h and subsequently treated with DMSO, 1 μM MLi-2, and 2.5 μM ECOR or ECOR A12G peptide for 6 h at 37 °C. The transfected cells were scored single-blinded for skein-like filamentous structures per condition. For tubulin staining, after a 6 h incubation with DMSO, MLi-2, or biotin-labeled peptides, the media was replaced with media containing 1 μM SiR-tubulin (Spirochrome SiR-tubulin Kit (SC002)) and 10 μM verapamil (a broad spectrum efflux pump inhibitor) for 1 h at 37 °C. Live cells were imaged using the 63× oil-immersion objective of a Zeiss LSM800 confocal laser scanning microscope. The Zeiss microscope software ZEN was used to generate channel overlays.

MBP-tagged RocCOR LRRK2 = target: T1, MBP-tagged RocCOR LRRK2 (Homo sapiens, UniProt Q5S007); assay: Fluorescence polarization (FP) binding assay, wild-type RocCOR; settings: 10 nM FAM-labeled doubly stapled peptide, wild-type RocCOR 5 μM to 1 nM, 2 mM GTP, 10 mM MgCl2, 20 mM MOPS pH 7, 150 mM NaCl, 0.005% CHAPS, room temperature, 2 h, triplicate
T1 sequence (Q5S007 1328-1840 limits assumed): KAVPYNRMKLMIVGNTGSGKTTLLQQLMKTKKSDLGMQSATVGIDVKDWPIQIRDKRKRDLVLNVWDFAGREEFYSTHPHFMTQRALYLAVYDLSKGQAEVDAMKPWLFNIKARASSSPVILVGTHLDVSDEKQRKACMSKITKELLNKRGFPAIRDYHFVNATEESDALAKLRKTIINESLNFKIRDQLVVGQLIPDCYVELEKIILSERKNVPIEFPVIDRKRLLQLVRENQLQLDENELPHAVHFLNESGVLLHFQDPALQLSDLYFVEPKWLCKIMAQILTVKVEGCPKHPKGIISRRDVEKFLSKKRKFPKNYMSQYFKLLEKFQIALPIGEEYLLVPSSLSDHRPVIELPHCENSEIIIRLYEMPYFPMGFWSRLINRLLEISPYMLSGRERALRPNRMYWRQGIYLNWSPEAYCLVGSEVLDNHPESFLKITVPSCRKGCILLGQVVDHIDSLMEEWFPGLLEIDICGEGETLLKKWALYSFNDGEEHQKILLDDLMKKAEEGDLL
Description: Fluorescence polarization assays were conducted on the lead doubly constrained compounds (ECOR and ECOR A12G) with two separate LRRK2 protein constructs: MBP-tagged RocCOR LRRK2 and MBP-tagged R1441C RocCOR LRRK2, both in the presence of 2 mM GTP and 10 mM MgCl2. Protein/peptide interactions were measured in a FP buffer (20 mM MOPS, pH 7, 150 mM NaCl, and 0.005% CHAPS) at room temperature. FAM-labeled peptides were plated in 384-well microtiter plates at a final concentration of 10 nM. Proteins were added over concentrations ranging from 5 μM to 1 nM. Each protein/peptide interaction experiment was carried out at 10 different protein concentrations in triplicate. Each protein/peptide mixture was incubated at room temperature for 2 h and the final reading was performed at the end of this 2 h period.

in vitro = in vitro ADME; settings: human, cells or culture medium
Description: Fully confluent HEK293 cells were lysed using ice-cold nondenaturing lysis buffer (20 mM Tris HCL, pH 8.0, 137 mM NaCl, 1% Triton X-100, 2 mM EDTA) and incubated for 30 min at 4 °C. Cells were centrifuged for 20 min at 12 000 rpm, and the supernatant was collected and kept on ice. […] Experiments were conducted at 37 °C with agitation for 0, 2, 4, and 6 h. Aliquots were collected and quenched at each indicated time point using an equal volume of 0.1% trifluoroacetic acid (TFA) in acetonitrile. This solution was then centrifuged at 14 000 rpm for 5 min, and the supernatant was used for analysis. Peptide degradation was analyzed on LC-MS using a Zorbax Eclipse XDB-C18 column as a ratio of peptide to control relative to peptide at t = 0 at 280 nm. A flow rate of 1.0 mL/min at 45 °C was used with a 0–100% water/acetonitrile gradient containing 0.1% TFA. Each individual peptide was analyzed in triplicate for each time point.

[3] = target: T2, LRRK2 G2019S homodimers in HEK293T cells (Homo sapiens, UniProt Q5S007, G2019S); assay: Proximity biotinylation of dimeric LRRK2 in cells; type: cell-based; settings: FAM-labeled peptide 0.5–2.5 μM, 48 h treatment, ELISA of biotinylated LRRK2 normalized to total LRRK2, biological triplicates
T2 construct: expressed in transfected cells; host or cells: HEK293T
Description: LRRK2 dimerization was assessed using either wild-type LRRK2 homodimers or LRRK2 G2019S homodimers. Experiments were carried out using various concentrations (0.5, μM, 1 μM, or 2.5 μM) of FAM-labeled ECOR or ECOR […]. The LRRK2 dimers used were purified as previously described.[18] To generate these dimers, two cDNAs encoding LRRK2 fusions with biotin ligase (BirA; N-term, Flag-tagged) or an acceptor peptide (AP, N-term; c-Myc tagged) were created. These constructs were expressed in HEK293T cells grown in biotin-depleted medium (OptiMEM+2% FBS). FAM-labeled ECO[…] and ECO[…] were diluted in serum-free medium and added 24 h after transfection. 48 h following the initial treatment (after 72 h of total expression), cells were washed in PBS, given a brief biotin pulse (50 μM, 5 min, 37 °C), washed three more times in PBS, and centrifuged. The cell pellet was snap frozen in a dry ice/methanol bath and stored at -80 °C until analysis. […] Protein-bound SA coated plates were incubated with HRP-conjugated anti-Flag antibodies for 1 h at room temperature to quantify dimeric LRRK2. Total LRRK2 overexpression was quantified using HRP-conjugated LRRK2 antibody (clone N241) on the parallel anti-LRRK2 coated plates (precoated with anti-LRRK2, clone c41-2) and was used to normalize dimeric LRRK2 content. […]

[4] = test system: primary cortical neurons expressing LRRK2 G2019S; assay: Neuronal apoptosis in primary cortical neurons; type: cell-based; settings: primary cortical neurons (E16 C57BL mice) transfected with Flag-LRRK2 G2019S; 0.5–1 μM peptide, 48 h; % Flag-positive neurons with apoptotic nuclei; three biological replicates
Description: Neurons were then transfected using Lipofectamine 2000 with Flag-tagged WT LRRK2 or G2019S LRRK2. The following day, neurons were treated with 0.5 μM and 1 μM of both ECO[…] and ECO[…] for 48 h. Cells were washed in PBS and fixed in 3.7% paraformaldehyde for 20 min at 4 °C prior to antibody treatments. Images were analyzed and quantifications were performed as previously described.[30] For the determination of apoptotic neuronal death, fixed and stained neurons were visualized under a 40× magnification objective (dry). On each coverslip, a minimum of 100 Flag-positive neurons were identified and the percentage of those with apoptotic profiles was determined. Apoptotic nuclei were defined as neurons having condensed chromatin, fragmented into at least 2 or more “apoptotic bodies”.

[5] = target: T3, purified full-length LRRK2 dimer (Homo sapiens, UniProt Q5S007); assay: Mass photometry assay of LRRK2 dimerization; type: biochemical; settings: LRRK2 at 75 nM and 100 nM, 7.5-fold excess of peptide, 30 min, 30 °C, three measurements
T3 construct: Purified full-length LRRK2 was incubated for 30 min; made in house
Description: LRRK2 was purified as previously described.[30] LRRK2 was diluted to a concentration of 150 nM or 200 nM and incubated with constrained peptide in a 1:7.5 ratio, for 30 min at 30 °C. Mass photometry was performed on a Refeyn Two^MP instrument.[30] The instrument was first focused with 10 μL of buffer (50 mM HEPES, 150 mM NaCl, 5 mM MgCl2, 1 mM DTT, 0.1 mM GDP, and 1% glycerol) after which 10 μL of the incubated LRRK2 solution was added. The samples were recorded for 1 min. Three measurements were processed for each condition, and the data were analyzed by GraphPad Prism.

[6] = 2.5 μM biotin-labeled peptide, 6 h, minimum 500 cells scored

T2 sequence (Q5S007 whole entry G2019S): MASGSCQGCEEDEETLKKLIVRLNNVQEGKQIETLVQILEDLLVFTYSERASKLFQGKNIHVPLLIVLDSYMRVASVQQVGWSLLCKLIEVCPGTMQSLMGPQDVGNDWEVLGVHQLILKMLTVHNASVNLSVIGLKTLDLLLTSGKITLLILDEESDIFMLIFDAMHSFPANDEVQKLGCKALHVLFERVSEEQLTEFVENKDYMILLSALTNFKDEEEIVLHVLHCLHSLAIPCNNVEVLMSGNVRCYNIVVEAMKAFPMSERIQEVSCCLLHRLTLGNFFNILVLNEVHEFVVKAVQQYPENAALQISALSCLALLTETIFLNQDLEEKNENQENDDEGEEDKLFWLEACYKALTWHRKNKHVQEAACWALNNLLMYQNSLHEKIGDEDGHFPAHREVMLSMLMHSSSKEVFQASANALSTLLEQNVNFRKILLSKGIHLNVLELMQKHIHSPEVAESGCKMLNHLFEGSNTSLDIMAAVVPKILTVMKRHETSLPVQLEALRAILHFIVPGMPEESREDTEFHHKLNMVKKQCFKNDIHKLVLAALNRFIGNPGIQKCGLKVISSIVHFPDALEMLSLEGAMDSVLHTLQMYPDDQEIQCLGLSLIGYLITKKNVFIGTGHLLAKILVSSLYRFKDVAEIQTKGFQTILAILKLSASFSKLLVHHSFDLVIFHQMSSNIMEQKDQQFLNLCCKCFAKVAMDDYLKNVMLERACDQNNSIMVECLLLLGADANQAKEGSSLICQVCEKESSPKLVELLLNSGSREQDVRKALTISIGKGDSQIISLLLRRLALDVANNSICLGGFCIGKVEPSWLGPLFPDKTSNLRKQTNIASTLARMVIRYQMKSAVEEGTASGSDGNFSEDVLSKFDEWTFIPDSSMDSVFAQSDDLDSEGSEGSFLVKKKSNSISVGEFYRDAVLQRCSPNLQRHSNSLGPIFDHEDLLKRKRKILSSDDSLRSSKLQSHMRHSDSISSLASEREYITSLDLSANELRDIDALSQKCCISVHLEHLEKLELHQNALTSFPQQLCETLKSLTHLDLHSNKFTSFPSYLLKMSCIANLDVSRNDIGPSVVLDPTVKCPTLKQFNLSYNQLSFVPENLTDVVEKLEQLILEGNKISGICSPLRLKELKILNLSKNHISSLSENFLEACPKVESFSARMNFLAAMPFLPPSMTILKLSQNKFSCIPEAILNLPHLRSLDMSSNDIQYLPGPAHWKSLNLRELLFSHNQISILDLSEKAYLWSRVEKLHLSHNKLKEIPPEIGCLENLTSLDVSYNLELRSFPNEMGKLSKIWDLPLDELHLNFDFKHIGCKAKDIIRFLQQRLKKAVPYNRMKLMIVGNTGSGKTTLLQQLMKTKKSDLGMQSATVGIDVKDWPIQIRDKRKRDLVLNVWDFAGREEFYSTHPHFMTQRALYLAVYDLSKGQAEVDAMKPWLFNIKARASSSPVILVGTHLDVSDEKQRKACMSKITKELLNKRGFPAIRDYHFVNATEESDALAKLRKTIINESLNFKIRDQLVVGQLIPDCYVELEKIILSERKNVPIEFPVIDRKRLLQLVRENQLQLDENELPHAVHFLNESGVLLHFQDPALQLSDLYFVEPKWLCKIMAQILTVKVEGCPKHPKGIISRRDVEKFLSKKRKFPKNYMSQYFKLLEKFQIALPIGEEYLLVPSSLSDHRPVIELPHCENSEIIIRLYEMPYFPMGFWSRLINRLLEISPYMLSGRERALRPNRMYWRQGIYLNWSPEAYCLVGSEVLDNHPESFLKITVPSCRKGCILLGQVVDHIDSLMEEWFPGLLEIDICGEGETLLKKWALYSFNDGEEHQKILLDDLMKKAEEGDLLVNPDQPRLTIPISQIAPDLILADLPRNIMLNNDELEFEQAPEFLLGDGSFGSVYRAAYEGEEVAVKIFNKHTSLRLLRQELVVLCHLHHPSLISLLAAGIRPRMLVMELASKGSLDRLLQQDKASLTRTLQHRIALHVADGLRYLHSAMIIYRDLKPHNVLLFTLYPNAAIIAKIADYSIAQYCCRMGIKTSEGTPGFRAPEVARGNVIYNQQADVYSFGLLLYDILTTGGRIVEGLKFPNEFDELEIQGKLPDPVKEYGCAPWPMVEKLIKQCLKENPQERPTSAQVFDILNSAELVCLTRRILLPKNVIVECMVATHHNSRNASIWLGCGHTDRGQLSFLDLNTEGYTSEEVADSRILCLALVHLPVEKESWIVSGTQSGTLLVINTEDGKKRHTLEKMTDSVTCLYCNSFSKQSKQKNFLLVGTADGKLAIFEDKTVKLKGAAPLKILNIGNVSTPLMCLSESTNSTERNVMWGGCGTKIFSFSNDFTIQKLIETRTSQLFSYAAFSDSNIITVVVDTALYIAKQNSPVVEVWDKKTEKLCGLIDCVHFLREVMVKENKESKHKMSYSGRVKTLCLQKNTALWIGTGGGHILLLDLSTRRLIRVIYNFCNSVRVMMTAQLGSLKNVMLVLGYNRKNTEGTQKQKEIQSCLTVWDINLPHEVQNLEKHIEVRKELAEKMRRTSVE
T3 sequence (Q5S007 whole entry): as the sequence (Q5S007 whole entry G2019S) above, with S2019G counted along it

SMILES | inhibition of Rab10 phosphorylation ([1]; 1 μM MLi-2 (positive control)) | localization of LRRK2 to microtubules as filamentous skein-like structures ([2]; 1 μM MLi-2, 6 h) | Kd (MBP-tagged RocCOR LRRK2) | remaining at 6 h, 0.2 mM (in vitro) | downregulation of intracellular LRRK2 G2019S dimerization [3] | downregulation of Rab10 phosphorylation [1] | localization of LRRK2 to microtubules as filamentous skein-like structures [2, 6] | reduction of cortical neuronal apoptosis [4] | inhibition of LRRK2 dimer formation [5]
C[C@@H]1CN(c2cc(-c3n[nH]c4ccc(OC5(C)CC5)cc34)ncn2)C[C@H](C)O1 [MLi-2, reference compound] | nearly completely inhibited | considerable colocalization with tubulin |  |  |  |  |  |  | 
CC(C)C[C@H](NC(=O)[C@H](CCCCN)NC(=O)[C@]1(C)CCCC=CCCC[C@](C)(NC(=O)[C@H](Cc2c[nH]cn2)NC(=O)[C@H](CCCCN)NC(=O)[C@H](CCC(=O)O)NC(=O)CNC(=O)[C@H](CC(=O)O)NC(=O)[C@H](CC(N)=O)NC(=O)[C@H](Cc2ccccc2)NC(=O)[C@H](CO)NC(=O)[C@H](Cc2ccc(O)cc2)NC(=O)[C@H](CC(C)C)NC(=O)[C@H](C)NC(=O)[C@H](Cc2c[nH]c3ccccc23)NC(=O)[C@]2(C)CCCC=CCCC[C@](C)(NC(=O)[C@H](CCC(=O)O)NC(=O)CNC(=O)[C@H](CCC(=O)O)NC(=O)CNC(=O)[C@H](CCCCN)NC(=O)COCCOCCOCCNC(=O)c3ccc4c(c3)C(=O)OC43c4ccc(O)cc4Oc4cc(O)ccc43)C(=O)N[C@@H](CC(C)C)C(=O)N[C@@H](CC(C)C)C(=O)N[C@@H](CCCCN)C(=O)N2)C(=O)N[C@@H](CCCCN)C(=O)N[C@@H](CCCCN)C(=O)N[C@@H](CC(C)C)C(=O)N1)C(N)=O [ECOR] ({5FAM-AEEEA}-KGEGE[S5]LLK[S5]WALYSFNDGEKH[S5]KKL[S5]KL-NH2; staple 6-10, 23-27) |  |  | 45 to 60 nM and 45 nM | > 80% | 50–60% | not found to have measurable effects | no significant localization | over 50% | 
CC(C)C[C@H](NC(=O)[C@H](CCCCN)NC(=O)[C@]1(C)CCCC=CCCC[C@](C)(NC(=O)[C@H](Cc2c[nH]cn2)NC(=O)[C@H](CCCCN)NC(=O)[C@H](CCC(=O)O)NC(=O)CNC(=O)[C@H](CC(=O)O)NC(=O)[C@H](CC(N)=O)NC(=O)[C@H](Cc2ccccc2)NC(=O)[C@H](CO)NC(=O)[C@H](Cc2ccc(O)cc2)NC(=O)[C@H](CC(C)C)NC(=O)CNC(=O)[C@H](Cc2c[nH]c3ccccc23)NC(=O)[C@]2(C)CCCC=CCCC[C@](C)(NC(=O)[C@H](CCC(=O)O)NC(=O)CNC(=O)[C@H](CCC(=O)O)NC(=O)CNC(=O)[C@H](CCCCN)NC(=O)COCCOCCOCCNC(=O)c3ccc4c(c3)C(=O)OC43c4ccc(O)cc4Oc4cc(O)ccc43)C(=O)N[C@@H](CC(C)C)C(=O)N[C@@H](CC(C)C)C(=O)N[C@@H](CCCCN)C(=O)N2)C(=O)N[C@@H](CCCCN)C(=O)N[C@@H](CCCCN)C(=O)N[C@@H](CC(C)C)C(=O)N1)C(N)=O [ECOR A12G] ({5FAM-AEEEA}-KGEGE[S5]LLK[S5]WGLYSFNDGEKH[S5]KKL[S5]KL-NH2; staple 6-10, 23-27) |  |  | 45 to 60 nM and 57 nM | > 80% | 50–60% | ~40% | no significant localization | over 50% | strongest dimer inhibition
